In brackets after ≈: the same amount, converted by molar mass.
Assays:
Test in all cases: antimicrobial activity, broth dilution method
Assay type in all cases: cell-based
[1] = tested on: Bacillus cereus ATCC 9634; details: broth dilution; for MIC: Bacillus cereus, ATCC9634, Bacillus cereus ATCC 9634, read-out: minimum inhibitory concentration (MIC)
Protocol: (§1) Antimicrobial activity of the new antibiotics according to the present invention was measured on various pathogenic microorganisms by the broth dilution mehtod. Tab. […] The new antibiotics show a similar antimicrobial spectrum to that of tylosin as shown in Tab. 4. All the compounds have an excellent antimicrobial activity mainly on gram-positive bacteria. […] Test microorganisms with an asterisk mark (*) in Tab. 4 are all drug-resistant strains that were clinically isolated. More in detail, Staphylococcus aureus MS-8710 is resistant to tylosin, penicillin, tetracycline, erythromycin and leucomycin. Staphylococcus aureus MS-9931 is resistant to tylosin, penicillin, erythromycin, tetracycline, leucomycin, spiramycin and josamycin. And also Streptococcus piogenes is resistant to tylosin, erythromycin, oleandomycin and leucomycin.

Sarcina lutea ATCC 9341 = details: for MIC: Micrococcus luteus, ATCC9341, Sarcina lutea ATCC 9341, read-out: minimum inhibitory concentration (MIC)
Protocol: as §1

[2] = tested on: Staphylococcus aureus FDA-209P; details: Staphylococcus aureus FDA-209P, broth dilution; for MIC: Staphylococcus aureus, FDA209P, read-out: minimum inhibitory concentration (MIC)
Protocol: as §1

[3] = tested on: Staphylococcus aureus MS-8710; details: for MIC: Staphylococcus aureus, MS8710, Staphylococcus aureus MS-8710, drug-resistant clinical isolate, read-out: minimum inhibitory concentration (MIC)
Protocol: as §1

[4] = tested on: Staphylococcus aureus MS-9931; details: Staphylococcus aureus MS-9931, drug-resistant clinical isolate; for MIC: MS9931, read-out: minimum inhibitory concentration (MIC)
Protocol: as §1

[5] = tested on: Staphylococcus aureus MS-9937; details: Staphylococcus aureus MS-9937, drug-resistant clinical isolate; for MIC: MS9937, read-out: minimum inhibitory concentration (MIC)
Protocol: as §1

[6] = tested on: Staphylococcus aureus SMITH; details: Staphylococcus aureus SMITH, broth dilution; for MIC: Staphylococcus aureus, read-out: minimum inhibitory concentration (MIC)
Protocol: as §1

[7] = tested on: Streptococcus pyogenes MH-771; details: for MIC: Streptococcus pyogenes, MH771, Streptococcus pyogenes MH-771, drug-resistant clinical isolate, read-out: minimum inhibitory concentration (MIC)
Protocol: as §1

Row | MIC [1] [mg/L] | MIC (Sarcina lutea ATCC 9341) [mg/L] | MIC [2] [mg/L] | MIC [3] [mg/L] | MIC [4] [mg/L] | MIC [5] [mg/L] | MIC [6] [mg/L] | MIC [7] [mg/L] | Structure (SMILES) | minimum inhibitory concentration (MIC) ([1]; Bacillus cereus ATCC 9634) [mg/L] | minimum inhibitory concentration (MIC) (Sarcina lutea ATCC 9341; Sarcina lutea ATCC 9341) [mg/L] | minimum inhibitory concentration (MIC) [2] [mg/L] | minimum inhibitory concentration (MIC) ([3]; Staphylococcus aureus MS-8710, drug-resistant clinical isolate) [mg/L] | minimum inhibitory concentration (MIC) [4] [mg/L] | minimum inhibitory concentration (MIC) [5] [mg/L] | minimum inhibitory concentration (MIC) [6] [mg/L] | minimum inhibitory concentration (MIC) ([7]; Streptococcus pyogenes MH-771, drug-resistant clinical isolate) [mg/L]
1 | 0.78 (≈ 0.769 µM) | 0.39 (≈ 0.385 µM) | 1.56 (≈ 1.54 µM) | 25 (≈ 24.6 µM) | 100 (≈ 98.6 µM) | 25 (≈ 24.6 µM) | 1.56 (≈ 1.54 µM) | 6.25 (≈ 6.16 µM) | CCCC(C)C(=O)OC1C(C)OC(OC2C(C)OC(OC3C(CC=O)CC(C)C(=O)C=CC(C)=CC(COC4OC(C)C(O)C(OC)C4OC)C(CC)OC(=O)CC(O)C3C)C(O)C2N(C)C)CC1(C)O (stereo not drawn) [Compound 12, 4"-α-methyl-n-valeryltylosin] |  |  |  |  |  |  |  | 
2 | 0.78 (≈ 0.738 µM) | 0.19 (≈ 0.18 µM) | 0.39 (≈ 0.369 µM) | 25 (≈ 23.7 µM) | 25 (≈ 23.7 µM) | 25 (≈ 23.7 µM) | 0.78 (≈ 0.738 µM) | 12.5 (≈ 11.8 µM) | CCC(CC)C(=O)OC1C(C)OC(OC2C(C)OC(OC3C(CC=O)CC(C)C(=O)C=CC(C)=CC(COC4OC(C)C(O)C(OC)C4OC)C(CC)OC(=O)CC(OC(C)=O)C3C)C(O)C2N(C)C)CC1(C)O (stereo not drawn) [Compound 13, 3-acetyl-4"-α-ethyl-n-butyryltylosin] |  |  |  |  |  |  |  | 
3 | 0.39 (≈ 0.361 µM) | 0.19 (≈ 0.176 µM) | 0.39 (≈ 0.361 µM) | 6.25 (≈ 5.79 µM) | 6.25 (≈ 5.79 µM) | 6.25 (≈ 5.79 µM) | 0.39 (≈ 0.361 µM) | 3.13 (≈ 2.9 µM) | CCC1OC(=O)CC(O)C(C)C(OC2OC(C)C(OC3CC(C)(O)C(OC(=O)Cc4ccc([N+](=O)[O-])cc4)C(C)O3)C(N(C)C)C2O)C(CC=O)CC(C)C(=O)C=CC(C)=CC1COC1OC(C)C(O)C(OC)C1OC (stereo not shown) [Compound 14, 4"-(4-nitrophenyl)acetyltylosin] |  |  |  |  |  |  |  | 
4 | 0.78 (≈ 0.715 µM) | 0.19 (≈ 0.174 µM) | 0.39 (≈ 0.358 µM) | 25 (≈ 22.9 µM) | 25 (≈ 22.9 µM) | 25 (≈ 22.9 µM) | 0.39 (≈ 0.358 µM) | 12.5 (≈ 11.5 µM) | CCC1OC(=O)CC(OC(C)=O)C(C)C(OC2OC(C)C(OC3CC(C)(O)C(OC(=O)C(C)c4ccccc4)C(C)O3)C(N(C)C)C2O)C(CC=O)CC(C)C(=O)C=CC(C)=CC1COC1OC(C)C(O)C(OC)C1OC (stereo not drawn) [Compound 15, 3-acetyl-4"-α-phenylpropionyltylosin] |  |  |  |  |  |  |  | 
5 | 0.78 (≈ 0.734 µM) | 0.19 (≈ 0.179 µM) | 0.39 (≈ 0.367 µM) | 12.5 (≈ 11.8 µM) | 25 (≈ 23.5 µM) | 12.5 (≈ 11.8 µM) | 0.39 (≈ 0.367 µM) | 6.25 (≈ 5.88 µM) | CCC(C(=O)OC1C(C)OC(OC2C(C)OC(OC3C(CC=O)CC(C)C(=O)C=CC(C)=CC(COC4OC(C)C(O)C(OC)C4OC)C(CC)OC(=O)CC(O)C3C)C(O)C2N(C)C)CC1(C)O)c1ccccc1 (stereo not drawn) [Compound 16, 4"-α-phenyl-n-butyryltylosin] |  |  |  |  |  |  |  | 
6 |  |  |  |  |  |  |  |  | CCC1OC(=O)CC(OC(C)=O)C(C)C(OC2OC(C)C(OC3CC(C)(O)C(OC(=O)C(OC(C)=O)c4ccccc4)C(C)O3)C(N(C)C)C2O)C(CC=O)CC(C)C(=O)C=CC(C)=CC1COC1OC(C)C(O)C(OC)C1OC [Compound 20, 3-acetyl-4"-L-(α-acetoxyphenylacetyl)tylosin] | 1.56 (≈ 1.38 µM) | 0.39 (≈ 0.344 µM) | 0.78 (≈ 0.688 µM) | 50 (≈ 44.1 µM) | 100 (≈ 88.2 µM) | 100 (≈ 88.2 µM) | 1.56 (≈ 1.38 µM) | 12.5 (≈ 11 µM)

Row | Structure (SMILES) | MIC [1] [mg/L] | MIC (Sarcina lutea ATCC 9341) [mg/L] | MIC [2] [mg/L] | MIC [3] [mg/L] | MIC [4] [mg/L] | MIC [5] [mg/L] | MIC [6] [mg/L] | MIC [7] [mg/L] | minimum inhibitory concentration (MIC) ([1]; Bacillus cereus ATCC 9634) [mg/L] | minimum inhibitory concentration (MIC) (Sarcina lutea ATCC 9341; Sarcina lutea ATCC 9341) [mg/L] | minimum inhibitory concentration (MIC) [2] [mg/L] | minimum inhibitory concentration (MIC) ([3]; Staphylococcus aureus MS-8710, drug-resistant clinical isolate) [mg/L] | minimum inhibitory concentration (MIC) [4] [mg/L] | minimum inhibitory concentration (MIC) [5] [mg/L] | minimum inhibitory concentration (MIC) [6] [mg/L] | minimum inhibitory concentration (MIC) ([7]; Streptococcus pyogenes MH-771, drug-resistant clinical isolate) [mg/L]
7 | CCC1OC(=O)CC(OC(C)=O)C(C)C(OC2OC(C)C(OC3CC(C)(O)C(OC(=O)C(OC(C)=O)c4ccccc4)C(C)O3)C(N(C)C)C2O)C(CC=O)CC(C)C(=O)C=CC(C)=CC1COC1OC(C)C(O)C(OC)C1OC [Compound 19, 3-acetyl-4"-D-(α-acetoxyphenylacetyl)tylosin] | 0.78 (≈ 0.688 µM) | 0.78 (≈ 0.688 µM) | 1.56 (≈ 1.38 µM) | 100 (≈ 88.2 µM) | 100 (≈ 88.2 µM) | 100 (≈ 88.2 µM) | 0.78 (≈ 0.688 µM) | 25 (≈ 22 µM) |  |  |  |  |  |  |  | 
8 | CCC1OC(=O)CC(OC(C)=O)C(C)C(OC2OC(C)C(OC3CC(C)(O)C(OC(=O)C(OC(C)=O)c4ccc(OC(C)=O)cc4)C(C)O3)C(N(C)C)C2O)C(CC=O)CC(C)C(=O)C=CC(C)=CC1COC1OC(C)C(O)C(OC)C1OC (stereo not drawn) [Compound 21, 3-acetyl-4"-[α-acetoxy-(4-acetoxyphenyl)acetyl]tylosin] | 0.78 (≈ 0.654 µM) | 0.39 (≈ 0.327 µM) | 0.78 (≈ 0.654 µM) | 50 (≈ 41.9 µM) | 50 (≈ 41.9 µM) | 50 (≈ 41.9 µM) | 0.78 (≈ 0.654 µM) | 12.5 (≈ 10.5 µM) |  |  |  |  |  |  |  | 

— patent US4205163A, “Tylosin derivatives” (Sanraku-Ocean Co., Ltd., priority 1977, dated 1980)
